The values that follow are results of earlier work, collected in paper PMC6007947, “Sensitivity of pretargeted immunoPET using ^68Ga-peptide to detect colonic carcinoma liver metastases in a murine xenograft model: Comparison with ^18FDG PET-CT” (Oncotarget, 2018).

For this data set the following is noted: stated in discussion. An excerpt:
Pretargeting is one way to improve tumor uptake and tumor to normal organ uptake ratios by reducing the molecular size of the radioactive agent and using a non-radiolabeled bispecific antibody, such as TF2. TF2 is a humanized bispecific monoclonal antibody produced by the Dock-and-Lock® technology, containing two anti-CEA Fab fragments and another Fab fragment binding the HSG hapten component of the IMP288 hapten peptide. Compared to previously used bispecific antibodies with a single binding site for the tumor antigen and another for the hapten, this bivalency is expected to increase t ...

With “DOTA-D-Tyr-D-Lys(HSG)-D-Glu-D-Lys(HSG)-NH2 [IMP288, DOTA-conjugated tetrapeptide containing two HSG hapten structures]”, the Clearance from blood entry is recorded as “within an hour”.
